Experimental findings from patent publication US20250382274A1, “COMPOSITIONS AND METHODS FOR THE TREATMENT OF PARKINSON'S AND GAUCHER DISEASE” (CHILDREN'S HOSPITAL MEDICAL CENTER, priority 2024, published 2025) are described below.

Test [1] has as its target T1, GCase in healthy human fibroblasts (Homo sapiens, UniProt P04062).
T1 construct: Healthy human fibroblasts (GCase cell); endogenous in cells; host or cells: healthy human fibroblasts
T1 sequence (P04062 40-536): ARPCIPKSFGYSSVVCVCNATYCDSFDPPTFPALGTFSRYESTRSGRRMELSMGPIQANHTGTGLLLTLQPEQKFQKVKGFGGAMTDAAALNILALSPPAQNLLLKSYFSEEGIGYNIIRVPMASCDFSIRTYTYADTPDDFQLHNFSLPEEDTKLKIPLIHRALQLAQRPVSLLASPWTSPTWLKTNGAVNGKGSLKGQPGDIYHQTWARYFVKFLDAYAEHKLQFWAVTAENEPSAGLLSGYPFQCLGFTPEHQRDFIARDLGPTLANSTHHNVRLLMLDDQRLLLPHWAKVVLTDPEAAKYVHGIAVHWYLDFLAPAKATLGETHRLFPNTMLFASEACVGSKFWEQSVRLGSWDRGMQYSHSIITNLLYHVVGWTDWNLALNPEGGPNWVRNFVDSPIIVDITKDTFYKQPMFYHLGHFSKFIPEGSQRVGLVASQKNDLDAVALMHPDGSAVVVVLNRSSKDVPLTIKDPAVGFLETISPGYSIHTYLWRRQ
Briefly: EC50 cell-based assay for GCase, healthy human fibroblasts (GCase cell). Conditions: 5 days compound treatment (0-20 μM). Here is the method: In cell assays, GCase activity measurements were carried out on harvested cell pellets on the 5th day of Compound treatment. Healthy human fibroblasts (GCase cell), mutant N370/ΔGG (GCase N370S) or L444P/L444P (GCase L444P) were incubated with the Compound (0-20 μM) for 5 days with 15% fetal bovine serum (FBS) in Dulbecco's Modified Eagle Medium (DMEM) in 100 mm culture dishes. Fresh Medium with Compound were replaced every other day. On the 5th day of Compound treatment, harvested cell pellets were lysed with 1% Na-taurocholate (Tc) and 1% Triton X-100 (Tx), and mixed with the reaction buffer which contained 0.025 mM Citric phosphate buffer (pH 5.6), 0.25% Tc/Tx and 4 mM 4-MuGlu, then incubated at 37° C. for 1 hour. EC50 represents the concentration of a Compound that produces 50% of its maximal response in the cell-based GCase activity assay.
(§1) GCase activities were determined fluorometrically with 4-MuGlu. The relative fluorescence unit (RFU) of 4-MuGlu standard curve is generated with the plate reader (M5, Molecular Devise) as 1 n mole=56500 RFU. The human mutant Gaucher fibroblasts were purchased from Coriell Institute (Camden, NJ): N370/ΔGG (Cat #: GM00852) and L444P/L444P (cat #: GM00877)

Test [2] concerns the target T2, GCase (purified enzyme, Velaglucerase alfa, VPRIV) (Homo sapiens, UniProt P04062).
T2 construct: purchased Shire Human Genetic Therapies, Cambridge, MA
T2 sequence (P04062 40-536): T1 sequence (P04062 40-536)
Briefly: GCase AC50 enzyme activity assay. The class given is biochemical. Conditions: pH 5.6, 4-MuGlu substrate, compounds 0-40 μM. Here is the method:
An in vitro enzyme assay was performed through a dose response curve of Compounds (0-40 μM) with purified enzyme (Velaglucerase alfa, VPRIV®, Shire Human Genetic Therapies, Cambridge, MA) in citric phosphate [0.025 mM] buffer (pH 5.6) where 4-MuGlu [4 mM] was the substrate. Compounds were pre-incubated with the enzyme for 40 minutes at room temperature prior to substrate addition, and then incubated at 37° C. for 1 hour. AC50 represents the concentration of a Compound that produces 50% of its maximal response in the in vitro GCase activity assay.
as §1

In general, EC50 refers to the midpoint of the concentration-response curve. Low readings indicate an effect from little substance, high ones a need for much substance. The term AC50 denotes the concentration giving half of the maximal activity seen. A higher AC50 goes with activity only at high concentration. `CN(CC1CCCO1)C(=O)c1ccccc1OCC(=O)Nc1ccc(Br)cc1` (stereo not shown) [Compound 1, 2-((4-bromophenylcarbamoyl)methoxy)-N-((tetrahydrofuran-2-yl)methyl)-N-methylbenzamide]: in test [1], the EC50 was less than 10 µM. Besides, the half-maximal activity concentration (AC50) in test [2] is less than 10 µM. In turn, `O=C(Nc1ccc(Br)cc1)c1cc2cccc(C(=O)NCC3CCCO3)c2o1` (stereo not shown) [Compound 3, N2-(4-bromophenyl)-N7-((tetrahydrofuran-2-yl)methyl)benzofuran-2,7-dicarboxamide] showed a concentration giving a half-maximal response (EC50) in test [1] of less than 10 µM. Also, the concentration at half-maximal activity (AC50) in test [2] was less than 10 µM. Take `COc1ccc(NC(=O)c2cc3cccc(C(=O)NCC4CCCO4)c3o2)cc1` (stereo not shown) [Compound 5, N7-((tetrahydrofuran-2-yl)methyl)-N2-(4-methoxyphenyl)benzofuran-2,7-dicarboxamide]: in test [1], the EC50 is less than 10 µM. Besides, in test [2], the AC50 was less than 10 µM. In turn, `COc1c(C(=O)Nc2ccc(Br)cc2)oc2c(C(=O)NCC3CCCO3)cccc12` (stereo not shown) [Compound 6, N2-(4-bromophenyl)-N7-((tetrahydrofuran-2-yl)methyl)-3-methoxybenzofuran-2,7-dicarboxamide] had a concentration for a half-maximal effect (EC50) in test [1] of less than 10 µM. The compound also came in with an AC50 in test [2] of less than 10 µM. In test [1], `COc1ccc(NC(=O)C(C)(C)Oc2ccccc2C(=O)N2CCOCC2)cc1` [Compound 7] gave an EC50 of less than 10 µM. For the same compound, the AC50 in test [2] was less than 10 µM.

The compound `CN(C)Cc1ccc(NC(=O)c2nc3cccc(C(=O)NCC4CCCO4)c3o2)cc1` (stereo not shown) [Compound 9, N2-(4-((dimethylamino)methyl)phenyl)-N7-((tetrahydrofuran-2-yl)methyl)benzo[d]oxazole-2,7-dicarboxamide] came in with an EC50 in test [1] of less than 10 µM. The compound further had an AC50 in test [2] of less than 10 µM. `COc1ccc(NC(=O)Cc2nnc(NCC3CCCO3)c3ccccc23)cc1` (stereo not shown) [Compound 11, 2-(1-((tetrahydrofuran-2-yl)methylamino)phthalazin-4-yl)-N-(4-methoxyphenyl)acetamide]: in test [1], the EC50 is less than 10 µM. In addition, in test [2], the AC50 is less than 10 µM. Consider `COc1ccc2[nH]c(COc3ccccc3C(=O)NCC3CCCO3)nc2c1` (stereo not shown) [Compound 12, 2-((5-methoxy-1H-benzo[d]imidazol-2-yl)methoxy)-N-((tetrahydrofuran-2-yl)methyl)benzamide], for which, in test [1], the EC50 was less than 10 µM. The compound also registered a half-maximal activity concentration (AC50) in test [2] of less than 10 µM. For `COc1ccc(NC(=O)c2nc3cc(F)cc(C(=O)NCC4CCO4)c3o2)cc1` (stereo not shown) [Compound 13, 5-fluoro-N2-(4-methoxyphenyl)-N7-(oxetan-2-ylmethyl)-1,3-benzoxazole-2,7-dicarboxamide], in test [1], the EC50 was less than 10 µM. Moreover, the AC50 in test [2] was less than 10 µM. `COc1ccc(NC(=O)c2nc3cc(F)cc(C(=O)NCC4CCO4)c3o2)cc1F` (stereo not shown) [Compound 14, 5-fluoro-N2-(3-fluoro-4-methoxy-phenyl)-N7-(oxetan-2-ylmethyl)-1,3-benzoxazole-2,7-dicarboxamide] came in with an AC50 in test [2] of less than 10 µM. In test [2], `COc1ccc(NC(=O)c2nc3c(F)ccc(C(=O)NCC4CCO4)c3o2)cc1` (stereo not shown) [Compound 15, 4-fluoro-N2-(4-methoxyphenyl)-N7-(oxetan-2-ylmethyl)-1,3-benzoxazole-2,7-dicarboxamide] gave an AC50 of less than 10 µM.

`O=C(Nc1ccc(CN2CCOCC2)cc1)c1nc2cccc(C(=O)NCC3CCO3)c2o1` (stereo not shown) [Compound 16, N2-[4-(morpholinomethyl)phenyl]-N7-(oxetan-2-ylmethyl)-1,3-benzoxazole-2,7-dicarboxamide]: in test [2], the AC50 was less than 10 µM. `CC(C)(Oc1ccccc1C(=O)NCC1CCO1)C(=O)NC1CCN(CC(F)F)CC1` (stereo not shown) [Compound 17, 2-[2-[[1-(2,2-difluoroethyl)-4-piperidyl]amino]-1,1-dimethyl-2-oxo-ethoxy]-N-(oxetan-2-ylmethyl)benzamide] returned an EC50 in test [1] of less than 10 µM. This compound also gave an AC50 in test [2] of less than 10 µM. The compound `CC(C)(Oc1ccccc1C(=O)NCC1CCO1)C(=O)NC1CCN(C2COC2)CC1` (stereo not shown) [Compound 18, 2-[1,1-dimethyl-2-[[1-(oxetan-3-yl)-4-piperidyl]amino]-2-oxo-ethoxy]-N-(oxetan-2-ylmethyl)benzamide] returned an EC50 in test [1] of less than 10 µM. This compound also had an AC50 in test [2] of less than 10 µM.

Compound `O=C(NC1CCOCC1)c1nc2cc(F)cc(C(=O)NCC3CCO3)c2o1` (stereo not shown) [Compound 19, 5-fluoro-N2-(tetrahydro-2H-pyran-4-yl)-N7-((oxetan-2-yl)methyl)benzo[d]oxazole-2,7-dicarboxamide] returned an EC50 in test [1] of less than 10 µM. This compound came in with an AC50 in test [2] of less than 10 µM. Compound `Cc1cc(NC(=O)c2nc3cc(F)cc(C(=O)NCC4CCO4)c3o2)ccn1` (stereo not shown) [Compound 20, 5-fluoro-N2-(2-methylpyridin-4-yl)-N7-((oxetan-2-yl)methyl)benzo[d]oxazole-2,7-dicarboxamide] displayed an EC50 in test [1] of less than 10 µM. In test [2], the AC50 was less than 10 µM. On to `O=C(Nc1ccc(Cl)cc1)c1nc2cc(F)cc(C(=O)NCC3CCO3)c2o1` (stereo not shown) [Compound 21, N2-(4-chlorophenyl)-5-fluoro-N7-((oxetan-2-yl)methyl)benzo[d]oxazole-2,7-dicarboxamide], for which the 50% effective concentration (EC50) in test [1] is less than 10 µM. In test [2], this compound returned an AC50 of less than 10 µM. Compound `O=C(Nc1ccc(OC(F)(F)F)cc1)c1nc2cc(F)cc(C(=O)NCC3CCO3)c2o1` (stereo not shown) [Compound 22, 5-fluoro-N7-((oxetan-2-yl)methyl)-N2-(4-(trifluoromethoxy)phenyl)benzo[d]oxazole-2,7-dicarboxamide] yielded an EC50 in test [1] of less than 10 µM. This compound also registered a half-maximal activity concentration (AC50) in test [2] of less than 10 µM. The compound `CN(CC1CCO1)C(=O)c1cc(F)ccc1OC(C)(C)C(=O)NC1CCOCC1` (stereo not shown) [Compound 23, 2-(2-(tetrahydro-2H-pyran-4-ylcarbamoyl)propan-2-yloxy)-5-fluoro-N-methyl-N-((oxetan-2-yl)methyl)benzamide] yielded an EC50 in test [1] of less than 10 µM. Besides, in test [2], the AC50 is less than 10 µM. Turning to `CN1CCC(NC(=O)C(C)(C)Oc2ccc(F)cc2C(=O)NCC2CCO2)C(F)(F)C1` (stereo not shown) [Compound 24, 2-(2-(3,3-difluoro-1-methylpiperidin-4-ylcarbamoyl)propan-2-yloxy)-5-fluoro-N-((oxetan-2-yl)methyl)benzamide], in test [1], the 50% effective concentration (EC50) was less than 10 µM. For the same compound, the AC50 in test [2] was less than 10 µM. In turn, `O=C(NCC1CCO1)c1cc(F)ccc1OCc1nc2cc(Cl)ccc2[nH]1` (stereo not shown) [Compound 25, 2-((6-chloro-1H-benzo[d]imidazol-2-yl)methoxy)-5-fluoro-N-((oxetan-2-yl)methyl)benzamide] came in with an EC50 in test [1] of less than 10 µM. In test [2], this compound had an AC50 of less than 10 µM. In test [1], `CC(C)(Oc1ccc(F)cc1C(=O)NCC1CCO1)C(=O)NCCN1CCOCC1` (stereo not shown) [Compound 27, 2-[1,1-dimethyl-2-(2-morpholinoethylamino)-2-oxo-ethoxy]-5-fluoro-N-(oxetan-2-ylmethyl)benzamide] showed an EC50 of less than 10 µM. This compound came in with an AC50 in test [2] of less than 10 µM. In test [2], `O=C(NC1CCN(CC(F)(F)F)CC1)c1nc2cc(F)cc(C(=O)NCC3CCO3)c2o1` (stereo not shown) [Compound 29, 5-fluoro-N7-(oxetan-2-ylmethyl)-N2-(1-(2,2,2-trifluoroethyl)piperidin-4-yl)benzo[d]oxazole-2,7-dicarboxamide] returned an AC50 of 10 to 100 µM. The same measure, in the same setting: for `CC(C)(Oc1ccc(F)cc1C(=O)NCC1CCO1)C(=O)Nc1ccc(OC(F)F)cc1` (stereo not shown) [Compound 31, 2-((1-((4-(difluoromethoxy)phenyl)amino)-2-methyl-1-oxopropan-2-yl)oxy)-5-fluoro-N-(oxetan-2-ylmethyl)benzamide] the value was less than 10 µM.
